Source: ChEMBL document CHEMBL1130441, “Studies on -lactam antibiotics. Synthesis and antibacterial activity of novel 1-methylcarbapenems related to FR21818: 5-membered ring analogs” (1997)
Values after ≈ are worked out from the molar mass of the structure shown.

How the values were obtained:
[1] = target: Dipeptidase 1 (Homo sapiens) (UniProt P16444); test: In vitro rate of hydrolysis by human dehydropeptidase-1 compared to meropenem.
Pseudomonas aeruginosa [2] = test: In vitro antibacterial activity of compound was measured on Pseudomonas aeruginosa IAM 1095; format: functional
Pseudomonas aeruginosa [3] = test: In vitro antibacterial activity of compound was measured on Pseudomonas aeruginosa 26; format: functional
Escherichia coli = test: In vitro antibacterial activity of compound was measured on Escherichia coli NIHJ JC-2; format: functional
Proteus vulgaris = test: In vitro antibacterial activity of compound was measured on Proteus vulgaris IAM 1025; format: functional
Staphylococcus aureus [4] = test: In vitro antibacterial activity of compound was measured on Staphylococcus aureus 209P JC-1; format: functional
Staphylococcus aureus [5] = test: In vitro antibacterial activity of compound was measured on Staphylococcus aureus 3004(MRSA); format: functional
Mus musculus [6] = test: Protective activity of compound was measured against lethal systemic infection by Staphylococcus aureus 8008 (MRSA) in ICR mice at 1 hr after subcutaneous administration; format: functional; details: sc
Mus musculus [7] = test: Protective activity of compound against lethal systemic infection by Staphylococcus aureus 8008 (MRSA) in ICR mice at 1 hr after sc administration; format: functional
Mus musculus [8] = test: Protective activity of compound against lethal systemic infection by Staphylococcus aureus 8008 (MRSA) in ICR mice at 1 hr after subcutaneous administration; format: functional; details: sc

Dipeptidase 1 (Homo sapiens), sequence (P16444 whole entry, looked up): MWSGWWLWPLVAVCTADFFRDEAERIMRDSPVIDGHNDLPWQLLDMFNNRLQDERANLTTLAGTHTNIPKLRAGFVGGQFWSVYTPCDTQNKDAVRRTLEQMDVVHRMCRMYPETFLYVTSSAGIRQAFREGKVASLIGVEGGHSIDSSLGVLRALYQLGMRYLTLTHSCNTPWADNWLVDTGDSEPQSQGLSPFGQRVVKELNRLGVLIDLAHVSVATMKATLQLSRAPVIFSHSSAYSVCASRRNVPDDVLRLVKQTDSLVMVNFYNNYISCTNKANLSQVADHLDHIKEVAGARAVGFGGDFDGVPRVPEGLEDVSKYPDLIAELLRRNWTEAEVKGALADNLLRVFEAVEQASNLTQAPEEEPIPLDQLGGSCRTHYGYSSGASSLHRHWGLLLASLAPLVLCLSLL

| Compound | DHP-I stability [1] | MIC (Pseudomonas aeruginosa [2]) [µg/mL] | MIC (Pseudomonas aeruginosa [3]) [µg/mL] | MIC (Escherichia coli) [µg/mL] | MIC (Proteus vulgaris) [µg/mL] | MIC (Staphylococcus aureus [4]) [µg/mL] | MIC (Staphylococcus aureus [5]) [µg/mL] | ED50 (Mus musculus [6]) [mg/kg] | ED50 (Mus musculus [7]) [mg/kg] | ED50 (Mus musculus [8]) [mg/kg] |
| --- | --- | --- | --- | --- | --- | --- | --- | --- | --- | --- |
| C[C@@H](O)[C@H]1C(=O)N2C(C(=O)O)=C(S[C@@H]3CN[C@H](Cc4cn(C)[n+](CC(=O)O)c4)C3)[C@H](C)[C@H]12.[Cl-] | 0.14 | 6.25 | 0.39 | 0.1 | 0.78 | 0.1 | 12.5 | – | – | – |
| C[C@@H](O)[C@H]1C(=O)N2C(C(=O)O)=C(S[C@@H]3CN[C@H](Cc4cc[n+](C)n4C)C3)[C@H](C)[C@H]12.[Cl-] | 0.42 | 1.56 | 0.2 | 0.2 | 0.78 | 0.05 | 6.25 | – | – | – |
| C[C@@H](O)[C@H]1C(=O)N2C(C(=O)O)=C(S[C@@H]3CN[C@H](Cc4c[n+](CCO)nn4C)C3)[C@H](C)[C@H]12.[Cl-] | 0.17 | 3.13 | 0.39 | 0.1 | 0.78 | 0.1 | 25 | – | – | – |
| CN[C@H](CC(C)C)C(=O)N[C@H]1C(=O)N[C@@H](CC(N)=O)C(=O)N[C@H]2C(=O)N[C@H]3C(=O)N[C@H](C(=O)N[C@H](C(=O)O)c4cc(O)cc(O)c4-c4cc3ccc4O)[C@H](O)c3ccc(c(Cl)c3)Oc3cc2cc(c3O[C@@H]2O[C@H](CO)[C@@H](O)[C@H](O)[C@H]2O[C@H]2C[C@](C)(N)[C@H](O)[C@H](C)O2)Oc2ccc(cc2Cl)[C@H]1O [VANCOMYCIN] | – | – | – | – | – | – | – | 2.73 | – | – |
| C[C@@H](O)[C@H]1C(=O)N2C(C(=O)O)=C(S[C@@H]3CN[C@H](Cc4n(C)cc[n+]4C)C3)[C@H](C)[C@H]12.[Cl-] | 0.3 | 12.5 | 0.39 | 0.1 | 0.78 | 0.1 | 6.25 | – | – | – |
| C[C@@H](O)[C@H]1C(=O)N2C(C(=O)O)=C(S[C@@H]3CN[C@H](Cc4c[n+](C)c(C(N)=O)n4C)C3)[C@H](C)[C@H]12.[Cl-] | 0.3 | 1.56 | – | 0.1 | – | – | – | – | – | – |
| C[C@@H](O)[C@H]1C(=O)N2C(C(=O)O)=C(S[C@@H]3CN[C@H](Cc4c[n+](CC(N)=O)cn4C)C3)[C@H](C)[C@H]12.[Cl-] | 0.31 | 3.13 | 0.2 | 0.1 | 0.78 | 0.05 | 12.5 | – | – | – |
| C[C@@H](O)[C@H]1C(=O)N2C(C(=O)O)=C(S[C@@H]3CN[C@H](Cc4cc[n+](CC(N)=O)n4C)C3)[C@H](C)[C@H]12.[Cl-] | 0.35 | 3.13 | 0.1 | 0.1 | 0.39 | < 0.025 | 6.25 | – | – | – |
| C[C@@H](O)[C@H]1C(=O)N2C(C(=O)O)=C(S[C@@H]3CN[C@H](Cc4cc(CO)[n+](C)n4C)C3)[C@H](C)[C@H]12.[Cl-] | – | 6.25 | – | 0.1 | – | – | – | – | – | – |
| C[C@@H](O)[C@H]1C(=O)N2C(C(=O)O)=C(S[C@@H]3CN[C@H](Cc4c(CO)c[n+](C)n4C)C3)[C@H](C)[C@H]12.[Cl-] | 0.28 | 3.13 | 0.39 | 0.2 | 0.78 | 0.1 | 25 | – | – | – |
| C[C@@H](O)[C@H]1C(=O)N2C(C(=O)O)=C(S[C@@H]3CN[C@H](Cc4cn5[n+](c4)CCC5)C3)[C@H](C)[C@H]12.[Cl-] | 0.21 | 3.13 | – | 0.1 | – | – | – | – | – | – |
| C[C@@H](O)[C@H]1C(=O)N2C(C(=O)O)=C(S[C@@H]3CN[C@H](Cc4n(C)nc[n+]4C)C3)[C@H](C)[C@H]12.[Cl-] | 0.22 | 12.5 | 1.56 | 0.2 | 0.78 | 0.1 | 12.5 | – | – | – |
| C[C@@H](O)[C@H]1C(=O)N2C(C(=O)O)=C(S[C@@H]3CN[C@H](Cc4cc[n+](CCO)n4C)C3)[C@H](C)[C@H]12.[Cl-] | 0.26 | 6.25 | 0.2 | 0.2 | 1.56 | 0.05 | 6.25 | 5.45 | – | – |
| C[C@@H](O)[C@H]1C(=O)N2C(C(=O)O)=C(S[C@@H]3CN[C@H](Cc4cc[n+](CC(=O)O)n4C)C3)[C@H](C)[C@H]12.[Cl-] | 0.61 | 3.13 | – | 0.05 | – | – | – | – | – | – |
| C[C@@H](O)[C@H]1C(=O)N2C(C(=O)[O-])=C(SC3Cn4cnc[n+]4C3)[C@H](C)[C@H]12 (stereo not given in full) [BIAPENEM] | 0.15 | 1.56 (≈ 4.45 µM) | 0.2 (≈ 0.571 µM) | 0.39 (≈ 1.11 µM) | 3.13 (≈ 8.93 µM) | 0.05 (≈ 0.143 µM) | 25 (≈ 71.3 µM) | – | 35.2 | – |
| C[C@@H](O)[C@H]1C(=O)N2C(C(=O)O)=C(S[C@@H]3CN[C@H](Cc4cn(C)[n+](C)c4)C3)[C@H](C)[C@H]12.[Cl-] | 0.28 | 3.13 | 0.39 | 0.2 | 1.56 | 0.05 | 3.13 | – | – | – |
| C[C@@H](O)[C@H]1C(=O)N2C(C(=O)O)=C(S[C@@H]3CN[C@H](Cc4c[n+](CCO)cn4C)C3)[C@H](C)[C@H]12.[Cl-] | 0.25 | 3.13 | 0.39 | 0.1 | 1.56 | 0.05 | 12.5 | – | – | – |
| C[C@@H](O)[C@H]1C(=O)N2C(C(=O)O)=C(S[C@@H]3CN[C@H](Cc4cn(C)[n+](C)c4CO)C3)[C@H](C)[C@H]12.[Cl-] | 0.24 | 6.25 | 0.39 | 0.39 | 1.56 | 0.05 | 6.25 | – | – | – |
| C[C@@H](O)[C@H]1C(=O)N2C(C(=O)O)=C(S[C@@H]3CN[C@H](C(=O)N(C)C)C3)[C@H](C)[C@H]12 [MEROPENEM] | 1 | 1.56 (≈ 4.07 µM) | 0.2 (≈ 0.522 µM) | 0.025 (≈ 0.0652 µM) | 0.1 (≈ 0.261 µM) | 0.1 (≈ 0.261 µM) | 25 (≈ 65.2 µM) | – | 7.88 | – |
| CC1(C)C[C@@H]1C(=O)N/C(=C\CCCCSC[C@H](N)C(=O)O)C(=O)O [CILASTATIN] | – | – | – | – | – | – | – | – | 7.88 | – |
| C[C@@H](O)[C@H]1C(=O)N2C(C(=O)O)=C(S[C@@H]3CN[C@H](Cc4c[n+](C)c(CO)n4C)C3)[C@H](C)[C@H]12.[Cl-] | 0.27 | 1.56 | 0.2 | 0.2 | 0.78 | 0.05 | 6.25 | – | – | – |
| C[C@@H](O)[C@H]1C(=O)N2C(C(=O)O)=C(S[C@@H]3CN[C@H](Cc4c[n+](C)cn4C)C3)[C@H](C)[C@H]12.[Cl-] | 0.41 | 3.13 | 0.2 | 0.2 | 0.78 | 0.05 | 6.25 | – | – | – |
| C[C@@H](O)[C@H]1C(=O)N2C(C(=O)O)=C(S[C@@H]3CN[C@H](Cc4c[n+](C)nn4C)C3)[C@H](C)[C@H]12.[Cl-] | 0.32 | 3.13 | 0.39 | 0.1 | 0.78 | 0.05 | 25 | – | – | – |
| C[C@@H](O)[C@H]1C(=O)N2C(C(=O)O)=C(S[C@@H]3CN[C@H](Cc4cn(C)[n+](CCO)c4)C3)[C@H](C)[C@H]12.[Cl-] | 0.2 | 1.56 | 0.39 | 0.39 | 1.56 | 0.05 | 12.5 | – | – | – |
| C[C@@H](O)[C@H]1C(=O)N2C(C(=O)O)=C(SCCNC=N)C[C@H]12 [IMIPENEM ANHYDROUS] | – | – | – | – | – | – | – | – | – | 7.02 |
| C[C@@H](O)[C@H]1C(=O)N2C(C(=O)O)=C(S[C@@H]3CN[C@H](Cc4cn(C)[n+](CC(N)=O)c4)C3)[C@H](C)[C@H]12.[Cl-] | 0.29 | 3.13 | 0.2 | 0.2 | 0.78 | < 0.025 | 6.25 | – | – | – |
